Patent US20080188528A1, “Modulators of C3a receptor and methods of use thereof” (priority 2006, published 2008)
Structures can show the parent of a compound that is named as a salt.

Molecular target: T1, human C3a receptor (C3aR) (Homo sapiens, UniProt Q16581)
T1 construct: expressed in transfected cells
T1 sequence (Q16581 1-482): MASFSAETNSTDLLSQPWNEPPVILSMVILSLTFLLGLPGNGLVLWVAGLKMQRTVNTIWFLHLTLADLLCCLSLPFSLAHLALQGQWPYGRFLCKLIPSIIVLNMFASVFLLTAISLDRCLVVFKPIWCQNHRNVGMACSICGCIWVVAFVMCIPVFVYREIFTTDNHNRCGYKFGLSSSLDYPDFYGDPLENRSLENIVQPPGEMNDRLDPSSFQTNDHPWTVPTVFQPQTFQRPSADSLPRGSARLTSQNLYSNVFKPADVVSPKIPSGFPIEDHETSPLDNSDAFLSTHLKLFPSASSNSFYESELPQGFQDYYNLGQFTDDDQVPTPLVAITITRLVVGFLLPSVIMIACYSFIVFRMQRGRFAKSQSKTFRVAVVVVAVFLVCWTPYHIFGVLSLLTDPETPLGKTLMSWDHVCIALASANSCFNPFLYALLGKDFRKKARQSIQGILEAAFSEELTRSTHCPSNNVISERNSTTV
Assay: Inhibition of human [125I]-C3a binding to human C3a receptor (SPA, membranes of HEK293 cells expressing recombinant C3aR)
Settings: 0.1 nM [125I]-C3a, 3 hours at room temperature
Method: Inhibition of human [^125I]-C3a binding to human C3a receptor
Binding of human [^125I]-C3a to human C3a receptor (C3aR) was done using cell membranes from HEK293 cells stably expressing recombinant C3aR, in a homogeneous scintillation proximity assay (SPA). The C3aR cell membranes were pre-coupled over-night at 4° C. to WGA-PVT SPA beads (Amersham) at a ratio of 10 μg cell membrane to 0.5 mg beads/assay. Assay was performed in 96-well microtiter Optiplates (Packard) by mixing coupled beads and 0.1 nM [^125I]-C3a (2200 Ci/mmol, Perkin Elmer Life Sciences), in a total volume of […] binding buffer (20 mM HEPES, pH 7.4, 125 mM NaCl, 5 mM KCl, 1 mM CaCl2, 1 mM MgCl2, 0.25% BSA, 0.2% CHAPS). Test compounds were diluted in DMSO and were tested for their inhibitory potential in the assay (final concentration≦1% DMSO). Incubation was done for 3 hours at room temperature followed by reading in a TopCount scintillation microplate reader. Non-specific binding was determined by adding 1 μM unlabeled C3a (Calbiochem) to the assay mixture. Calculation of the IC50 was done as above using a nonlinear least square fitting program, with Graphpad Prism.

Row | SMILES | IC50 (Table 3) [nM] | IC50 (Table 4) [nM]
1 | N=C(N)NCCC[C@H](NC(=O)c1ccn(C(c2ccccc2)c2ccccc2)c(=O)c1)C(=O)O [Compound 56, (2S)-5-carbamimidamido-2-({[1-(diphenylmethyl)-2-oxo-1,2-dihydropyridin-4-yl]carbonyl}amino)pentanoic acid•TFA] | 50 to 500 | –
2 | N=C(N)NCCC[C@H](NC(=O)c1ccc(=O)n(C(c2ccccc2)c2ccccc2)c1)C(=O)O [Compound 57, (2S)-5-carbamimidamido-2-({[1-(diphenylmethyl)-6-oxo-1,6-dihydropyridin-3-yl]carbonyl}amino)pentanoic acid•TFA] | 500 to 20000 | –
3 | CC(C)(C(=O)NC(c1ccccc1)c1ccccc1)C(=O)N[C@@H](CCCNC(=N)N)C(=O)O [Compound 58, (2S)-5-carbamimidamido-2-({3-[(diphenylmethyl)amino]-2,2-dimethyl-3-oxopropanoyl}amino)pentanoic acid•TFA] | < 50 | –
4 | NCCCC[C@H](NC(=O)c1cccn(Cc2ccccc2)c1=O)C(=O)O [Compound 60, (2S)-6-amino-2-{[(1-benzyl-2-oxo-1,2-dihydropyridin-3-yl)carbonyl]amino}hexanoic acid•TFA] | – | 500 to 20000
5 | Cc1ccc(S(=O)(=O)NCCCC[C@H](NC(=O)c2cccn(Cc3ccccc3)c2=O)C(=O)O)cc1 [Compound 61, (2S)-2-{[(1-benzyl-2-oxo-1,2-dihydropyridin-3-yl)carbonyl]amino}-6-{[(4-methylphenyl)sulfonyl]amino} hexanoic acid] | – | 500 to 20000
6 | Cc1ccc(S(=O)(=O)NCCCC[C@H](NC(=O)c2cccn(C(c3ccccc3)c3ccccc3)c2=O)C(=O)O)cc1 [Compound 62, (2S)-2-({[1-(diphenylmethyl)-2-oxo-1,2-dihydropyridin-3-yl]carbonyl}amino)-6-{[(4-methylphenyl)sulfonyl]amino}hexanoic acid] | – | 50 to 500
7 | N=C(N)NCCCC[C@H](NC(=O)c1cccn(Cc2ccccc2)c1=O)C(=O)O [Compound 63, (2S)-2-{[(1-benzyl-2-oxo-1,2-dihydropyridin-3-yl)carbonyl]amino}-6-carbamimidamidohexanoic acid•TFA] | – | 500 to 20000
8 | NC(=O)CC[C@H](NC(=O)c1cccn(C(c2ccccc2)c2ccccc2)c1=O)C(=O)O [Compound 64, (2S)-5-amino-2-({[1-(diphenylmethyl)-2-oxo-1,2-dihydropyridin-3-yl]carbonyl}amino)-5-oxopentanoic acid] | – | 500 to 20000
9 | N=C(N)NCC[C@H](NC(=O)c1cccn(C(c2ccccc2)c2ccccc2)c1=O)C(=O)O [Compound 65, (2S)-4-carbamimidamido-2-({[1-(diphenylmethyl)-2-oxo-1,2-dihydropyridin-3-yl]carbonyl}amino)butanoic acid•TFA] | – | 50 to 500
10 | CCOC(=O)N=C(NC)NCC[C@H](NC(=O)c1cccn(C(c2ccccc2)c2ccccc2)c1=O)C(=O)O [Compound 66, (2S)-2-({[1-(diphenylmethyl)-2-oxo-1,2-dihydropyridin-3-yl]carbonyl}amino)-4-{[[(ethoxycarbonyl)amino](methylamino)methylene]amino}butanoic acid] | – | 500 to 20000
11 | Cc1ccc(S(=O)(=O)NCCC[C@H](NC(=O)c2cccn(Cc3ccccc3)c2=O)C(=O)O)cc1 [Compound 67, (2S)-2-{[(1-benzyl-2-oxo-1,2-dihydropyridin-3-yl)carbonyl]amino}-5-{[(4-methylphenyl)sulfonyl]amino}pentanoic acid] | – | 500 to 20000
12 | Cc1ccc(S(=O)(=O)NCCC[C@H](NC(=O)c2cccn(C(c3ccccc3)c3ccccc3)c2=O)C(=O)O)cc1 [Compound 68, (2S)-2-({[1-(diphenylmethyl)-2-oxo-1,2-dihydropyridin-3-yl]carbonyl}amino)-5-{[(4-methylphenyl)sulfonyl]amino}pentanoic acid] | – | 500 to 20000
13 | CS(=O)(=O)NCCC[C@H](NC(=O)c1cccn(C(c2ccccc2)c2ccccc2)c1=O)C(=O)O [Compound 69, (S)-2-(1-benzhydryl-2-oxo-1,2-dihydropyridine-3-carboxamido)-5-(methylsulfonamido)pentanoic acid] | – | 50 to 500
14 | O=C(N[C@@H](CCCNC1=NCCN1)C(=O)O)c1cccn(Cc2ccccc2)c1=O [Compound 70, (2S)-2-{[(1-benzyl-2-oxo-1,2-dihydropyridin-3-yl)carbonyl]amino}-5-(4,5-dihydro-1H-imidazol-2-ylamino)pentanoic acid•TFA] | – | 500 to 20000
15 | O=C(N[C@@H](CCCNC1=NCCN1)C(=O)O)c1cccn(C(c2ccccc2)c2ccccc2)c1=O [Compound 71, (2S)-5-(4,5-dihydro-1H-imidazol-2-ylamino)-2-({[1-(diphenylmethyl)-2-oxo-1,2-dihydropyridin-3-yl]carbonyl}amino)pentanoic acid•TFA] | – | < 50
16 | N=C(N)Nc1cccc([C@H](NC(=O)c2cccn(Cc3ccccc3)c2=O)C(=O)O)c1 [Compound 72, (2S)-{[(1-benzyl-2-oxo-1,2-dihydropyridin-3-yl)carbonyl]amino}(3-carbamimidamidophenyl)acetic acid•TFA] | – | 50 to 500
17 | N=C(NCCC[C@H](NC(=O)c1cccn(Cc2ccccc2)c1=O)C(=O)O)N[N+](=O)[O-] [Compound 73, (2S)-2-{[(1-benzyl-2-oxo-1,2-dihydropyridin-3-yl)carbonyl]amino}-5-(nitrocarbamimidamido)pentanoic acid] | – | 500 to 20000
18 | N=C(NCCC[C@H](NC(=O)c1cccn(C(c2ccccc2)c2ccccc2)c1=O)C(=O)O)N[N+](=O)[O-] [Compound 74, (2S)-2-({[1-(diphenylmethyl)-2-oxo-1,2-dihydropyridin-3-yl]carbonyl}amino)-5-(nitrocarbamimidamido)pentanoic acid] | – | 50 to 500
19 | COC(=O)[C@H](CCCNC(=N)N[N+](=O)[O-])NC(=O)c1cccn(C(c2ccccc2)c2ccccc2)c1=O [Compound 75, methyl (2S)-2-({[1-(diphenylmethyl)-2-oxo-1,2-dihydropyridin-3-yl]carbonyl}amino)-5-(nitrocarbamimidamido)pentanoate] | – | 500 to 20000
20 | Cc1ccc(S(=O)(=O)NC(=N)NCCC[C@H](NC(=O)c2cccn(Cc3ccccc3)c2=O)C(=O)O)cc1 [Compound 76, (2S)-2-{[(1-benzyl-2-oxo-1,2-dihydropyridin-3-yl)carbonyl]amino}-5-{[(4-methylphenyl)sulfonyl]carbamimidamido} pentanoic acid] | – | 500 to 20000
21 | Cc1ccc(S(=O)(=O)NC(=N)NCCC[C@H](NC(=O)c2cccn(C(c3ccccc3)c3ccccc3)c2=O)C(=O)O)cc1 [Compound 77, (2S)-2-({[1-(diphenylmethyl)-2-oxo-1,2-dihydropyridin-3-yl]carbonyl}amino)-5-{[(4-methylphenyl)sulfonyl]carbamimidamido}pentanoic acid] | – | 50 to 500
22 | Cc1c(C)c(S(=O)(=O)NC(=N)Nc2cccc([C@H](NC(=O)c3cccn(Cc4ccccc4)c3=O)C(=O)O)c2)c(C)c2c1OC(C)(C)CC2 [Compound 78, (2S)-{[(1-benzyl-2-oxo-1,2-dihydropyridin-3-yl)carbonyl]amino}(3-{[(2,2,5,7,8-pentamethyl-3,4-dihydro-2H-chromen-6-yl)sulfonyl]carbamimidamido}phenyl)acetic acid] | – | 500 to 20000
23 | Cc1c(C)c(S(=O)(=O)NC(=N)NCCC[C@H](NC(=O)c2cccn(CC(c3ccccc3)c3ccccc3)c2=O)C(=O)O)c(C)c2c1OC(C)(C)CC2 [Compound 79, (2S)-2-({[1-(2,2-diphenylethyl)-2-oxo-1,2-dihydropyridin-3-yl]carbonyl}amino)-5-{[(2,2,5,7,8-pentamethyl-3,4-dihydro-2H-chromen-6-yl)sulfonyl]carbamimidamido}pentanoic acid•TFA] | – | 50 to 500
24 | COC(=O)[C@H](CCCNC(=N)N)NC(=O)c1cccn(C(c2ccccc2)c2ccccc2)c1=O [Compound 80, methyl (2S)-5-carbamimidamido-2-({[1-(diphenylmethyl)-2-oxo-1,2-dihydropyridin-3-yl]carbonyl}amino)pentanoate] | – | < 50
25 | N=C(N)NCCC[C@H](NC(=O)c1cccn(C(c2ccccc2)c2ccccc2)c1=O)C(N)=O [Compound 81, N-[(1S)-4-carbamimidamido-1-carbamoylbutyl]-1-(diphenylmethyl)-2-oxo-1,2-dihydropyridine-3-carboxamide-TFA] | – | 500 to 20000
26 | CCOC(=O)N=C(NCCC[C@H](NC(=O)c1cccn(C(c2ccccc2)c2ccccc2)c1=O)C(=O)O)NC(C)C [Compound 82, (2S)-2-({[1-(diphenylmethyl)-2-oxo-1,2-dihydropyridin-3-yl]carbonyl}amino)-5-{[{(ethoxycarbonyl)amino}(isopropylamino)methylene]amino}pentanoic acid] | – | 50 to 500
